Reference: patent US8471063B2, “Michael systems as transglutaminase inhibitors” (Zedira GmbH, priority 2006, dated 2013)
Read-outs that look alike come from different tables or passages of the source. *1 amine or outer side, *2 acyl side, *3 side chain or, on linkers, in order; H or OH if unused. Where a SMILES comes first, the peptide text is derived from it. [ ]: non-standard residue; d: D form. X3 = O=C([C@H](CC/C=C/[N+](=O)[O-])N[*:1])[*:2]; Phe(2,4-Cl2) = N[C@@H](Cc1ccc(Cl)cc1Cl)C(=O)O; X1 = CN(C)C(=O)/C=C/CC[C@H](N[*:1])C(=O)[*:2]; X4 = O=C([C@@H]1C(O)c2ccccc2CN1[*:1])[*:2]; hCit = NC(=O)NCCCC[C@H](N)C(=O)O; Aib = CC(C)(N)C(=O)O

What was measured:
Assay type in all cases: biochemical
TG3 = target: T1, TG3 (Homo sapiens, UniProt Q08188); experiment: Transglutaminase inhibition, IC50 at TG3
T1 sequence (Q08188 1-693): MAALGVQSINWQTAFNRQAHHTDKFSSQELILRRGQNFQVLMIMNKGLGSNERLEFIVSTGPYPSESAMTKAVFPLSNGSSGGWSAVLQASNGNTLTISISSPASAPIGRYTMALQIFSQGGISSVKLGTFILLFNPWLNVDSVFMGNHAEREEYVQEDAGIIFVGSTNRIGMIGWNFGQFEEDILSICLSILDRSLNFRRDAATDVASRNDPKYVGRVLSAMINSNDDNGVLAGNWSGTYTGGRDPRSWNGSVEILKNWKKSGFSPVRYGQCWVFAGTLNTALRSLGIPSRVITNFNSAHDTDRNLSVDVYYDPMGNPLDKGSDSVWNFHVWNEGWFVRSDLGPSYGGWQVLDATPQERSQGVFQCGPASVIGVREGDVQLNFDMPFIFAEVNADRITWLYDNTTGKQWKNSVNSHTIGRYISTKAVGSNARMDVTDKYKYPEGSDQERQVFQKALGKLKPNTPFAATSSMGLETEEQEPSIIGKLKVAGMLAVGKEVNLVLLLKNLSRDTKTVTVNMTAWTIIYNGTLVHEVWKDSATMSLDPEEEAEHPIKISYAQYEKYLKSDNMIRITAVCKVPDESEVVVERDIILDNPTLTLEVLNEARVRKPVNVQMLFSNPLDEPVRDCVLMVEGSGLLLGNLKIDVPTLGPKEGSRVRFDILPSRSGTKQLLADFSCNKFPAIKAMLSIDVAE

TG7 = target: T2, TG7 (Homo sapiens, UniProt Q96PF1); experiment: Transglutaminase inhibition, IC50 at TG7
T2 construct: His6 (N); made in house; host or cells: E. coli BL21 (DE3)
T2 sequence (Q96PF1 1-710): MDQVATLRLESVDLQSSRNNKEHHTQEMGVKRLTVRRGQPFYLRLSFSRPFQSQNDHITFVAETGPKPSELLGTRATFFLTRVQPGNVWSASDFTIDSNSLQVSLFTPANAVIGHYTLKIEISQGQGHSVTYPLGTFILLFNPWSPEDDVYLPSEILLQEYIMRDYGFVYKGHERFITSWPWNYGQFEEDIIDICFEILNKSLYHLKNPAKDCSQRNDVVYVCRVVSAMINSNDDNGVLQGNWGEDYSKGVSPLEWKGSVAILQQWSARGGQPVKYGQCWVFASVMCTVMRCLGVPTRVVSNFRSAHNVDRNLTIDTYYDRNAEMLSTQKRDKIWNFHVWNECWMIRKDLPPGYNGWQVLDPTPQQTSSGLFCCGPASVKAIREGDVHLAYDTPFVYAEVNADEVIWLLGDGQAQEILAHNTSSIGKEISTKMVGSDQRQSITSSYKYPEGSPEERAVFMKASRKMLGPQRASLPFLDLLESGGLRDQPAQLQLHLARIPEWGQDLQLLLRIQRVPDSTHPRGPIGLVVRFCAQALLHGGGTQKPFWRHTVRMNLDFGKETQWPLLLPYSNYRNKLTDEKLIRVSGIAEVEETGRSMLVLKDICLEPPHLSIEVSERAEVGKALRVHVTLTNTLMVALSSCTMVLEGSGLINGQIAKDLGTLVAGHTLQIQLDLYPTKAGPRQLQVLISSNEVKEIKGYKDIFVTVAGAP
Experimental: (§1) The genes encoding for TG6 and TG7 were amplified from TG6-cDNA and TG7-cDNA, respectively, with PCR according to standard procedures (both state-of-the-art according to U.S. Pat. No. 7,052,890). Through the primers used a NdeI restriction site and six histidine codons were inserted at the 5′ end and a BgIII restriction site (TG6) and a HindIII restriction site (TG7) at the 3′ end.
(§2) The Tg6 PCR product was treated with the restriction endonucleases NdeI and BgIII. In the NdeI and BamH I restricted vector pET 3a was inserted. The Tg7 PCR product was treated with the restriction endonucleases NdeI and HindIII. and in the likewise restricted vector pET 28b was inserted.
(§3) The E. coli strain BL21 (DE3) (Novagen, Darmstadt) was transformed with the obtained plasmids. A culture of one strain each was induced with IPTG and harvested. After cell disruption under high pressure homogenisation the disrupts were centrifuged and the supernatants were purified via metal ion affinity chromatography on HiTrap chelating HP columns (GE-Helathcare). The purified proteins TG6 and TG7 were analyzed by SDS-PAGE with Coomassie staining. All procedures used for the production of TG6 and TG7 are well known to the one skilled in the art.

TG6 = target: T3, TG6 (Homo sapiens, UniProt O95932); experiment: Transglutaminase inhibition, IC50 at TG6
T3 construct: His6 (N); made in house; host or cells: E. coli BL21 (DE3)
T3 sequence (O95932 1-706): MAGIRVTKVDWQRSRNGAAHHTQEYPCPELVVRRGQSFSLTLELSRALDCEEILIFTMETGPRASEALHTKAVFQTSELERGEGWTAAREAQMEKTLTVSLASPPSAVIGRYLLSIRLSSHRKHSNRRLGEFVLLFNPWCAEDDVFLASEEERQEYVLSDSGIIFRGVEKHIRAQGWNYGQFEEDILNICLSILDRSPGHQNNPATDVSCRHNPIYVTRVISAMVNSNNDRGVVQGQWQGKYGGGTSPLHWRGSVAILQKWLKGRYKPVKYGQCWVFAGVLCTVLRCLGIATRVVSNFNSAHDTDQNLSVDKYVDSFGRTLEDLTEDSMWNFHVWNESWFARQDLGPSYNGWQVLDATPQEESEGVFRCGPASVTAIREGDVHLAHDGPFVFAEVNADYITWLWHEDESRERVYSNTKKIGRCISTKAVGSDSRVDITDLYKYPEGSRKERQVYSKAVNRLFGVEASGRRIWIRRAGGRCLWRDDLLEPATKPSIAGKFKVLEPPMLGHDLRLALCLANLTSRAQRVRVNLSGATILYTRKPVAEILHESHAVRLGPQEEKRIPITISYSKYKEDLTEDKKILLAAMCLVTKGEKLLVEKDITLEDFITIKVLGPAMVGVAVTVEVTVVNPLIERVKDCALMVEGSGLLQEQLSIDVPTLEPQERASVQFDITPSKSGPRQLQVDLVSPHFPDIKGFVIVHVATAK
Experimental: as §1, §2, §3

[1] = Table 2, read-out: IC50 value [TG3]
[2] = Table 2, read-out: IC50 value [TG7]
[3] = Table 2, read-out: IC50 value [TG6]

Row | SMILES | IC50 (TG3; [1]) [µM] | IC50 (TG7; [2]) [µM] | IC50 (TG6; [3]) [µM] | IC50 (TG3) [µM] | IC50 (TG7) [µM] | IC50 (TG6) [µM]
1 | CC[C@H](C)[C@H](NC(=O)[C@H](CCC(N)=O)NC(=O)[C@H](CC/C=C/C(=O)N(C)C)NC(=O)[C@H](Cc1ccc(Cl)cc1Cl)NC(=O)C(C)(C)NC(C)=O)C(=O)N[C@H](C(=O)O)C(C)C [Compound 3.2.13] (Ac-[Aib][Phe(2,4-Cl2)][X1]QIV-OH) | > 100 | 46 | 4 |  |  | 
2 | CC(=O)N[C@@H](CCC(N)=O)C(=O)N[C@@H](CCC(N)=O)C(=O)N[C@@H](CC/C=C/[N+](=O)[O-])C(=O)N[C@H](C(=O)N[C@@H](CCCCNC(N)=O)C(=O)N[C@@H](CCC(N)=O)C(=O)N1Cc2ccccc2C(O)[C@H]1C(N)=O)C(C)C (stereo partly drawn) [Compound 3.2.14] (Ac-QQ[X3]V[hCit]Q[X4]-NH2) | 2.3 | > 100 | > 100 |  |  | 
3 | CC(=O)N[C@@H](CCl)C(=O)N1CSC[C@H]1C(=O)N[C@@H](CC/C=C/C(=O)c1ccc([N+](=O)[O-])cc1)C(=O)N[C@@H](CCC(N)=O)C(=O)N[C@@H](CC1CCCCC1)C(=O)Nc1ccc(C(=O)O)cc1 [Compound 3.2.16] |  |  |  | 48 | 3.4 | 2
